ChEMBL document CHEMBL5260839 (J Med Chem, 2019)
The source made the active and inactive calls. The calls are words filed in the database; no cut-off is given here. Peptide text beside a SMILES is read from it. * marks the point of attachment. Cbz = O=C(OCc1ccccc1)*

Tests used:
[1] = biological target: T1, E3 ubiquitin-protein ligase Mdm2 (Homo sapiens, UniProt Q00987); experiment: Binding affinity to recombinant human MDM2 (1 to 118 residues) assessed as inhibition constant using FAM-tagged p-53 based peptide as substrate by fluorescence polarization based assay
Target sequence in this assay (Q00987 whole entry, the tested form may be a part): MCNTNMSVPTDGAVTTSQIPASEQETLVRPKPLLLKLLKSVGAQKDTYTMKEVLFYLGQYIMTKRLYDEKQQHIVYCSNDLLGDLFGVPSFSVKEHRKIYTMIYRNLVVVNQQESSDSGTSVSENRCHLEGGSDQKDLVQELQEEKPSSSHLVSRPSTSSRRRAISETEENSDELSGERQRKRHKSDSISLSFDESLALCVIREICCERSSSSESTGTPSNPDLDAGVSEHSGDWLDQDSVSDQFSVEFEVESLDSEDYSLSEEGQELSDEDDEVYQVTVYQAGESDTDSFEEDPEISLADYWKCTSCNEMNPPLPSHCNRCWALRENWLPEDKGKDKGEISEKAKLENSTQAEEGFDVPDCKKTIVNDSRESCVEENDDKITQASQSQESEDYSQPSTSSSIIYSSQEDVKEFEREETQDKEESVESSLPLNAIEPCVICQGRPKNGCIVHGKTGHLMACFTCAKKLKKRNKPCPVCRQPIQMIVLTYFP

[2] = tested on: RS4-11; experiment: cells; details: Homo sapiens, RS4-11, 96 h
[3] = biological target: T1, E3 ubiquitin-protein ligase Mdm2; experiment: Inhibition of MDM2 in human RS4-11 cells harbouring wildtype p53 assessed as fold change in p53 accumulation at 10 uM incubated for 4 hrs by Western blot analysis (reference value: […]); format: cell-based
Target sequence in this assay (Q00987 whole entry, looked up, the tested form may be a part): as the sequence (Q00987 whole entry, the tested form may be a part) above

[4] = biological target: T1, E3 ubiquitin-protein ligase Mdm2; experiment: Inhibition of MDM2 in human RS4-11 cells harbouring wildtype p53 assessed as fold change in MDM2 level at 10 uM incubate for 4 hrs by Western blot analysis (reference value: […]); format: cell-based
Target sequence in this assay (Q00987 whole entry, looked up, the tested form may be a part): as the sequence (Q00987 whole entry, the tested form may be a part) above

[5] = biological target: T1, E3 ubiquitin-protein ligase Mdm2; experiment: Inhibition of MDM2 in human RS4-11 cells harbouring wildtype p53 assessed as fold change in p53 accumulation at 1 uM incubated for 4 hrs by Western blot analysis (reference value: 1); format: cell-based
Target sequence in this assay (Q00987 whole entry, looked up, the tested form may be a part): as the sequence (Q00987 whole entry, the tested form may be a part) above

[6] = biological target: T1, E3 ubiquitin-protein ligase Mdm2; experiment: Inhibition of MDM2 in human RS4-11 cells harbouring wildtype p53 assessed as fold change in MDM2 level at 1 uM incubate for 4 hrs by Western blot analysis (reference value: […]); format: cell-based
Target sequence in this assay (Q00987 whole entry, looked up, the tested form may be a part): as the sequence (Q00987 whole entry, the tested form may be a part) above

[7] = tested on: RS4-11; experiment: Potency index, ratio of MI-1242 IC50 to test compound IC50 for inhibition of cell growth in human RS4-11 cells incubated for 4 days by lactate dehydrogenase based WST-8 assay; format: functional; details: time 4 day
[8] = tested on: RS4-11; experiment: Potency index, ratio of MI-1061 IC50 to test compound IC50 for inhibition of cell growth in human RS4-11 cells incubated for 4 days by lactate dehydrogenase based WST-8 assay; format: functional; details: time 4 day
[9] = tested on: RS4-11; experiment: Antitumor activity against human RS4-11 cells xenografted in mouse assessed as reduction in tumor growth at 100 mg/kg, po administered daily for 5 days starting from day 26; format: functional, organism-based; details: time 5.0 day
[10] = Toxicity in mouse xenografted with human RS4-11 cells assessed as signs of toxicity at 100 mg/kg, po administered once daily for 5 days; format: organism-based; details: in vivo, 120 h, time 5 day
[11] = tested on: MV4-11; experiment: Inhibition of cell growth in human MV4-11 cells incubated for 4 days in the presence of lenalidomide by Lactate dehydrogenase based WST-8 assay; format: functional; details: time 4.0 day
[12] = Toxicity in mouse xenografted with human RS4-11 cells assessed as weight loss at 100 mg/kg, po administered once daily for 5 days; format: organism-based; details: in vivo, 120 h, time 5 day
[13] = tested on: RS4-11; experiment: Induction of apoptosis in human RS4-11 cells incubated for 24 hrs by Annexin-V/PI staining based flow cytometric analysis; format: functional, cell-based
[14] = tested on: MONO-MAC-6; experiment: cells; details: Homo sapiens, MONO-MAC-6, 96 h
[15] = tested on: KG-1; experiment: cells; details: Homo sapiens, KG-1, 96 h
[16] = tested on: SIG-M5; experiment: cells; details: Homo sapiens, SIG-M5, 96 h
[17] = tested on: RS4-11; experiment: Inhibition of cell growth in human RS4-11 cells incubated for 4 days in the presence of lenalidomide by Lactate dehydrogenase based WST-8 assay; format: functional; details: time 4.0 day
[18] = tested on: MOLM-13; experiment: cells; details: Homo sapiens, MOLM-13, 96 h
[19] = biological target: T1, E3 ubiquitin-protein ligase Mdm2; experiment: Inhibition of MDM2 in human RS4-11 cells harbouring wildtype p53 assessed as fold change in p53 accumulation at 3 uM incubated for 4 hrs by Western blot analysis (reference value: 1); format: cell-based
Target sequence in this assay (Q00987 whole entry, looked up, the tested form may be a part): as the sequence (Q00987 whole entry, the tested form may be a part) above

[20] = biological target: T1, E3 ubiquitin-protein ligase Mdm2; experiment: Inhibition of MDM2 in human RS4-11 cells harbouring wildtype p53 assessed as fold change in MDM2 level at 3 uM incubate for 4 hrs by Western blot analysis (reference value: […]); format: cell-based
Target sequence in this assay (Q00987 whole entry, looked up, the tested form may be a part): as the sequence (Q00987 whole entry, the tested form may be a part) above

Structure (SMILES) | IC50 [2] [nM] | also measured
CNC(=O)c1ccc(NC(=O)[C@@H]2NC3(CCCCC3)[C@@]3(C(=O)Nc4cc(Cl)ccc43)[C@H]2c2cccc(Cl)c2F)cc1 | 89 | Ki [1]: 2.7 nM
CC(C)C[C@@H](C=O)NC(=O)[C@H](CC(C)C)NC(=O)[C@H](CC(C)C)NC(=O)OCc1ccccc1 (Cbz-Leu-Leu-Leu-aldehyde) | – | fold change (FC) [3]: 6.9; fold change (FC) [4]: 2.9
Cc1ncsc1-c1ccc([C@H](C)NC(=O)[C@@H]2C[C@@H](O)CN2C(=O)[C@@H](NC(=O)CCOCCOCCNC(=O)c2ccc(NC(=O)[C@@H]3NC4(CCCCC4)[C@@]4(C(=O)Nc5cc(Cl)ccc54)[C@H]3c3cccc(Cl)c3F)cc2)C(C)(C)C)cc1 | 500 | –
CC(C)C[C@H](NC(=O)[C@H](CCc1ccccc1)NC(=O)CN1CCOCC1)C(=O)N[C@@H](Cc1ccccc1)C(=O)N[C@@H](CC(C)C)C(=O)[C@@]1(C)CO1 | – | fold change (FC) [5]: 8.5; fold change (FC) [6]: 3.6
Cc1ncsc1-c1ccc([C@H](C)NC(=O)[C@@H]2C[C@@H](O)CN2C(=O)[C@@H](NC(=O)CCCOCCOCCOCCNC(=O)c2ccc(NC(=O)[C@@H]3NC4(CCCCC4)[C@@]4(C(=O)Nc5cc(Cl)ccc54)[C@H]3c3cccc(Cl)c3F)cc2)C(C)(C)C)cc1 | 340 | –
CN1C(=O)CCC(N2Cc3c(C#CCCCNC(=O)c4ccc(NC(=O)[C@@H]5NC6(CCCCC6)[C@@]6(C(=O)Nc7cc(Cl)ccc76)[C@H]5c5cccc(Cl)c5F)cc4)cccc3C2=O)C1=O (some centres not stated) | 1200 | –
Cc1ncsc1-c1ccc([C@H](C)NC(=O)[C@@H]2C[C@@H](O)CN2C(=O)[C@@H](NC(=O)CCCCNC(=O)c2ccc(NC(=O)[C@@H]3NC4(CCCCC4)[C@@]4(C(=O)Nc5cc(Cl)ccc54)[C@H]3c3cccc(Cl)c3F)cc2)C(C)(C)C)cc1 | 1200 | –
O=C(O)c1ccc(NC(=O)[C@@H]2NC3(CCCCC3)[C@@]3(C(=O)Nc4cc(Cl)ccc43)[C@H]2c2cccc(Cl)c2F)cc1 | – | Activity [9]: Active; Activity [10]: Non-Toxic; inhibition [11]: Active; Activity [12]: Non-Toxic; Activity [13]: Dose-Dependent Effect; IC50 [14]: > 10000 nM; IC50 [15]: > 10000 nM; IC50 [16]: 106 nM; inhibition [17]: Active; IC50 [18]: 76.8 nM
O=C1CCC(N2Cc3c(C#CCCCNC(=O)c4ccc(NC(=O)[C@H]5NC6(CCCCC6)[C@]6(C(=O)Nc7cc(Cl)ccc76)[C@@H]5c5cccc(Cl)c5F)cc4)cccc3C2=O)C(=O)N1 (some centres not stated) | > 10000 | –
NS(=O)(=O)OC[C@@H]1C[C@@H](n2ccc3c(N[C@H]4CCc5ccccc54)ncnc32)C[C@@H]1O | – | fold change (FC) [19]: 5.1; fold change (FC) [20]: 2.4
O=C1CCC(N2C(=O)c3cccc(NCCCCCCCNC(=O)c4ccc(NC(=O)[C@@H]5NC6(CCCCC6)[C@@]6(C(=O)Nc7cc(Cl)ccc76)[C@H]5c5cccc(Cl)c5F)cc4)c3C2=O)C(=O)N1 (some centres not stated) | 100 | –

Continued, in another order:

IC50 [2] [nM] | Structure (SMILES) | also measured
12 | O=C1CCC(N2C(=O)c3cccc(NCCCCCNC(=O)c4ccc(NC(=O)[C@@H]5NC6(CCCCC6)[C@@]6(C(=O)Nc7cc(Cl)ccc76)[C@H]5c5cccc(Cl)c5F)cc4)c3C2=O)C(=O)N1 (some centres not stated) | –
22 | O=C1CCC(N2C(=O)c3cccc(NCCCCCCNC(=O)c4ccc(NC(=O)[C@@H]5NC6(CCCCC6)[C@@]6(C(=O)Nc7cc(Cl)ccc76)[C@H]5c5cccc(Cl)c5F)cc4)c3C2=O)C(=O)N1 (some centres not stated) | –
10 | O=C1CCC(N2C(=O)c3cccc(NCCCCNC(=O)c4ccc(NC(=O)[C@@H]5NC6(CCCCC6)[C@@]6(C(=O)Nc7cc(Cl)ccc76)[C@H]5c5cccc(Cl)c5F)cc4)c3C2=O)C(=O)N1 (some centres not stated) | Ratio IC50 [7]: 10; Ratio IC50 [8]: 10
9 | O=C1CCC(N2C(=O)c3cccc(NCCCNC(=O)c4ccc(NC(=O)[C@@H]5NC6(CCCCC6)[C@@]6(C(=O)Nc7cc(Cl)ccc76)C5c5cccc(Cl)c5F)cc4)c3C2=O)C(=O)N1 (single isomer, unassigned) | –
5 | O=C1CCC(N2Cc3cc(CC#CCCCNC(=O)c4ccc(NC(=O)[C@@H]5NC6(CCCCC6)[C@@]6(C(=O)Nc7cc(Cl)ccc76)[C@H]5c5cccc(Cl)c5F)cc4)ccc3C2=O)C(=O)N1 (some centres not stated) | –
8 | O=C1CCC(N2C(=O)c3cccc(NCCOCCNC(=O)c4ccc(NC(=O)[C@@H]5NC6(CCCCC6)[C@@]6(C(=O)Nc7cc(Cl)ccc76)[C@H]5c5cccc(Cl)c5F)cc4)c3C2=O)C(=O)N1 (some centres not stated) | –
29 | O=C1CCC(N2C(=O)c3cccc(CCCCCNC(=O)c4ccc(NC(=O)[C@@H]5NC6(CCCCC6)[C@@]6(C(=O)Nc7cc(Cl)ccc76)[C@H]5c5cccc(Cl)c5F)cc4)c3C2=O)C(=O)N1 (some centres not stated) | –
5 | O=C1CCC(N2Cc3ccc(CC#CCCCNC(=O)c4ccc(NC(=O)[C@@H]5NC6(CCCCC6)[C@@]6(C(=O)Nc7cc(Cl)ccc76)[C@H]5c5cccc(Cl)c5F)cc4)cc3C2=O)C(=O)N1 (some centres not stated) | –
5 | O=C1CCC(N2C(=O)c3cccc(NCCOCCOCCOCCNC(=O)c4ccc(NC(=O)[C@@H]5NC6(CCCCC6)[C@@]6(C(=O)Nc7cc(Cl)ccc76)[C@H]5c5cccc(Cl)c5F)cc4)c3C2=O)C(=O)N1 (some centres not stated) | –
68.4 | O=C1CCC(N2C(=O)c3cccc(NC(=O)c4ccc(NC(=O)[C@@H]5NC6(CCCCC6)[C@@]6(C(=O)Nc7cc(Cl)ccc76)[C@H]5c5cccc(Cl)c5F)cc4)c3C2=O)C(=O)N1 (some centres not stated) | –
5 | O=C1CCC(N2Cc3cccc(NCCCCNC(=O)c4ccc(NC(=O)[C@@H]5NC6(CCCCC6)[C@@]6(C(=O)Nc7cc(Cl)ccc76)[C@H]5c5cccc(Cl)c5F)cc4)c3C2=O)C(=O)N1 (some centres not stated) | –
7 | O=C1CCC(N2C(=O)c3cccc(NCCOCCOCCNC(=O)c4ccc(NC(=O)[C@@H]5NC6(CCCCC6)[C@@]6(C(=O)Nc7cc(Cl)ccc76)[C@H]5c5cccc(Cl)c5F)cc4)c3C2=O)C(=O)N1 (some centres not stated) | Ratio IC50 [7]: 10; Ratio IC50 [8]: 10
15 | O=C1CCC(N2C(=O)c3cccc(NCCNC(=O)c4ccc(NC(=O)[C@@H]5NC6(CCCCC6)[C@@]6(C(=O)Nc7cc(Cl)ccc76)[C@H]5c5cccc(Cl)c5F)cc4)c3C2=O)C(=O)N1 (some centres not stated) | –
3.9 | O=C1CCC(N2Cc3c(C#CCCNC(=O)c4ccc(NC(=O)[C@@H]5NC6(CCCCC6)[C@@]6(C(=O)Nc7cc(Cl)ccc76)[C@H]5c5cccc(Cl)c5F)cc4)cccc3C2=O)C(=O)N1 (some centres not stated) | –
